According to US7195787B1, “Skincare composition against free radicals” (The Boots Company PLC, priority 1999, dated 2007):

Experiment: lipid peroxidation assay: protection of linoleic acid from UV light
Type: biochemical
Conditions: antioxidant at the printed concentration (1.50%, 0.10%, 0.10%, combination 1.70%)
Method: The following procedure tests the ability of antioxidants to protect lipids form the damaging effects of UV light. The antioxidants to be tested are morus alba (“Mulberry Concentrate” from Aston Chemicals), magnesium ascorbyl phosphate and panax ginseng (“Phytexcell Panax ginseng” from Croda Chemicals Ltd). The antioxidants were tested individually at a particular concentration and in combination. In the test the antioxidant or combination of antioxidants is mixed with a known skin lipid (linoleic acid) and irradiated using UV light. The quantity of peroxides in each sample is measured colourimetrically after irradiation to assess the level of damage caused by peroxidation of the linoleic acid.
A 1% lipid stock solution is prepared dissolving linoleic in an aqueous solution of octoxynol-9 (Triton X-100). Stock solutions in aqueous TBS buffer of the following antioxidants magnesium ascorbyl phosphate, morus alba and panax ginseng were prepared at 15%, 1.0% and 1.0% respectively. […]
Using a micropipette plate 7.5 μl of each sample is pipetted into 3 wells, i.e. in triplicate, and irradiated with UV light for 40 minutes. […] The reaction that occurs causes a colour change from colourless to blue which is measured colourimetrically at 675 nm. The more peroxides present the darker the blue colouration and the higher the observed absorbance.

O=C1O[C@H]([C@@H](O)CO)C([O-])=C1OP(=O)([O-])[O-].O=C1O[C@H]([C@@H](O)CO)C([O-])=C1OP(=O)([O-])[O-].[Mg+2].[Mg+2].[Mg+2] [Magnesium ascorbyl phosphate, magnesium ascorbyl phosphate]
Absorbance (675 nm, after 40 minutes UV, 0.5% linoleic acid): 0.84 | percentage of peroxidation observed when compared to that seen with the irradiated controls (40 minutes UV): >100%
